We go through three compounds from patent publication US11912662B1, “2-alkoxy[4,3:6,2-terpyridine]-3-carbonitrile as antimicrobial compounds” (KING FAISAL UNIVERSITY, priority 2023, dated 2024).

SMILES strings stand for the structures.

Common to all, as to format: cell-based
The test system of one experiment is Bacillus cereus. Nature of the experiment: Agar plate disc-diffusion antibacterial test, Bacillus cereus. The following applies: nutrient agar, 37° C., 48 h, DMSO control zone subtracted. The method, then: (§1) The agar plate disc-diffusion method was applied. Sterilized filter papers (6 mm in diameter) were wetted with 10 μL of a solution of 2-ethoxy[4,3:6,2-terpyridine]-3-carbonitrile (4) or 2-methoxy[4,3:6,2-terpyridine]-3-carbonitrile (5) to be tested, containing […], and the discs were allowed to air dry. The discs were then placed onto the surface of agar plates (nutrient agar for bacteria and Sabouraud's dextrose agar for fungi) seeded with the test organism. Each plate contained 15 mL of the agar medium, previously seeded with 0.2 mL of the broth culture of each organism pre-grown for 18 hours. The plates were incubated at 37° C. for 48 h, and 72 h for fungi. The inhibition zones were measured in mm. Discs impregnated with DMSO were used as a control, and its inhibition zone was subtracted from the tested compound actual inhibition zone.
(§2) The results of the antimicrobial testing can be observed in Tables 1 and 2, below, using ciprofloxacin as a reference.
For orientation: A growth-free zone around the sample is the usual read-out of agar diffusion tests.

The next experiment relates to Staphylococcus aureus. Nature of the experiment: Agar plate disc-diffusion antibacterial test, Staphylococcus aureus. To be noted: nutrient agar, 37° C., 48 h, DMSO control zone subtracted. The protocol:
as §1, §2

Another experiment has as its system Pseudomonas aeruginosa. Nature of the experiment: Agar plate disc-diffusion antibacterial test, Pseudomonas aeruginosa. The following applies: nutrient agar, 37° C., 48 h, DMSO control zone subtracted. The protocol: as §1, §2
In a further experiment the test system is Escherichia coli. In words: Agar plate disc-diffusion antibacterial test, Escherichia coli. The following applies: nutrient agar, 37° C., 48 h, DMSO control zone subtracted. The method, then: as §1, §2
In a further experiment the test system is Aspergillus flavus. In words: Agar plate disc-diffusion antifungal test, Aspergillus flavus. The following applies: Sabouraud's dextrose agar, 37° C., 72 h, DMSO control zone subtracted. The method, then: as §1, §2
Experiment [1] deals with Chrysosporium keratinophilum. Nature of the experiment: Agar plate disc-diffusion antifungal test, Chrysosporium keratinophilum. The following applies: Sabouraud's dextrose agar, 37° C., 72 h, DMSO control zone subtracted. The method, then: as §1, §2
Setting [2] is: A = concentration of comp. = 10,000 μL.
The mark [3] stands for this setting: B = concentration of comp. = 30.000 μL.
Where [4] appears, read: C = concentration of comp. = 50,000 μL.

For the compound `CCOc1nc(-c2ccccn2)cc(-c2cccnc2)c1C#N` [Compound 4, 2-ethoxy[4,3:6,2-terpyridine]-3-carbonitrile], the inhibition zone with Bacillus cereus (setting [2]) is 25 mm; in the experiment with Bacillus cereus (setting [3]), 27 mm; with Bacillus cereus (setting [4]) it was 40 mm; with Staphylococcus aureus (setting [2]), 16 mm; in the experiment with Staphylococcus aureus (setting [3]), 20 mm; in the experiment with Staphylococcus aureus (setting [4]), 28 mm. Moreover, the inhibition zone in the experiment with Pseudomonas aeruginosa (setting [2]) came out at 24 mm; in the experiment with Pseudomonas aeruginosa (setting [3]), 29 mm; in the experiment with Pseudomonas aeruginosa (setting [4]), 46 mm; in the experiment on Escherichia coli (setting [2]) it was 28 mm; in the experiment with Escherichia coli (setting [3]), 37 mm; with Escherichia coli (setting [4]), 51 mm. The inhibition zone is on record as 20 mm in the experiment on Aspergillus flavus (setting [2]); 23 mm in the experiment on Aspergillus flavus (setting [3]); 35 mm with Aspergillus flavus (setting [4]); 22 mm in experiment [1] (setting [2]); 24 mm in experiment [1] (setting [3]); 35 mm in experiment [1] (setting [4]).
Turning to `O=C(O)c1cn(C2CC2)c2cc(N3CCNCC3)c(F)cc2c1=O` [Cip., ciprofloxacin, reference compound], the inhibition zone is on record as 29 mm in the experiment with Bacillus cereus (setting [2]); 30 mm in the experiment on Bacillus cereus (setting [3]); 42 mm with Bacillus cereus (setting [4]); 43 mm with Staphylococcus aureus (setting [2]); 44 mm in the experiment with Staphylococcus aureus (setting [3]); 53 mm with Staphylococcus aureus (setting [4]). Besides, the inhibition zone came out at 29 mm with Pseudomonas aeruginosa (setting [2]); 30 mm with Pseudomonas aeruginosa (setting [3]); 53 mm in the experiment on Pseudomonas aeruginosa (setting [4]); 30 mm in the experiment with Escherichia coli (setting [2]); 39 mm in the experiment with Escherichia coli (setting [3]); 60 mm with Escherichia coli (setting [4]). The inhibition zone with Aspergillus flavus (setting [2]) stood at 29 mm; with Aspergillus flavus (setting [3]), 30 mm; in the experiment with Aspergillus flavus (setting [4]) it was 42 mm; in experiment [1] (setting [2]), 29 mm; in experiment [1] (setting [3]) it was 30 mm; in experiment [1] (setting [4]) it was 53 mm.
Turning to `COc1nc(-c2ccccn2)cc(-c2cccnc2)c1C#N` [Compound 5, 2-methoxy[4,3:6,2-terpyridine]-3-carbonitrile], the inhibition zone in the experiment on Bacillus cereus (setting [2]) is on record as 26 mm; in the experiment with Bacillus cereus (setting [3]), 28 mm; with Bacillus cereus (setting [4]), 41 mm; in the experiment on Staphylococcus aureus (setting [2]), 18 mm; with Staphylococcus aureus (setting [3]) it was 22 mm; in the experiment on Staphylococcus aureus (setting [4]) it was 31 mm. The inhibition zone in the experiment with Pseudomonas aeruginosa (setting [2]) is listed as 25 mm; with Pseudomonas aeruginosa (setting [3]) it was 29 mm; in the experiment with Pseudomonas aeruginosa (setting [4]) it was 47 mm; in the experiment on Escherichia coli (setting [2]), 29 mm; in the experiment with Escherichia coli (setting [3]), 38 mm; with Escherichia coli (setting [4]), 54 mm. Besides, the inhibition zone in the experiment on Aspergillus flavus (setting [2]) is listed as 21 mm; with Aspergillus flavus (setting [3]) it was 26 mm; in the experiment with Aspergillus flavus (setting [4]) it was 31 mm; in experiment [1] (setting [2]), 25 mm; in experiment [1] (setting [3]) it was 27 mm; in experiment [1] (setting [4]), 47 mm.
